Laboratory results taken from BindingDB's records for doi:10.1021/jm060797q (Teikyo University, 2006).

Assay: Antagonist activity against 1-alpha,25-dihydroxy vitamin D3-induced HL60 cell differentiation by NBT reduction method

SMILES | IC50 [nM]
C=C1/C(=C\C=C2/CCC[C@]3(C)[C@@H]([C@H](C)C[C@H]4OC(=O)C(=C)[C@H]4CC(C)C)CC[C@@H]23)C[C@@H](O)[C@H](C)[C@@H]1O | 11
C=C1/C(=C\C=C2/CCC[C@]3(C)[C@@H]([C@H](C)C[C@@H]4OC(=O)C(=C)[C@@H]4C)CC[C@@H]23)C[C@@H](O)[C@H](CCCO)[C@@H]1O | 6.2
C=C1/C(=C\C=C2/CCC[C@]3(C)[C@@H]([C@H](C)C[C@@H]4OC(=O)C(=C)[C@@H]4CC)CC[C@@H]23)C[C@@H](O)[C@H](OCCCO)[C@@H]1O | 8.4
C=C1/C(=C\C=C2/CCC[C@]3(C)[C@@H]([C@H](C)C[C@@H]4OC(=O)C(=C)[C@@H]4CCCC)CC[C@@H]23)C[C@@H](O)[C@H](OCCCO)[C@@H]1O | 8.8
C=C1/C(=C\C=C2/CCC[C@]3(C)[C@@H]([C@H](C)C[C@@H]4OC(=O)C(=C)[C@@H]4CCCC)CC[C@@H]23)C[C@@H](O)[C@H](CCCO)[C@@H]1O | 8.8
C=C1/C(=C\C=C2/CCC[C@]3(C)[C@@H]([C@H](C)C[C@H]4OC(=O)C(=C)[C@@H]4CCCC)CC[C@@H]23)C[C@@H](O)[C@H](OCCCO)[C@@H]1O | 8.8
C=C1/C(=C\C=C2/CCC[C@]3(C)[C@@H]([C@H](C)C[C@H]4OC(=O)C(=C)[C@@H]4CCC)CC[C@@H]23)C[C@@H](O)[C@H](CCCO)[C@@H]1O | 6.3
C=C1C(=O)O[C@H](C[C@@H](C)[C@H]2CC[C@H]3/C(=C/C=C4/C[C@@H](O)C[C@H](O)C4=C)CCC[C@]23C)[C@@H]1CC(C)C | 10
C=C1/C(=C\C=C2/CCC[C@]3(C)[C@@H]([C@H](C)C[C@@H]4OC(=O)C(=C)[C@@H]4CCC)CC[C@@H]23)C[C@@H](O)C[C@@H]1O | 6
C=C1C(=O)O[C@H](C[C@@H](C)[C@H]2CC[C@H]3/C(=C/C=C4/C[C@@H](O)C[C@H](O)C4=C)CCC[C@]23C)[C@@H]1CCC | 6
C=C1/C(=C\C=C2/CCC[C@]3(C)[C@@H]([C@H](C)C[C@@H]4OC(=O)C(=C)[C@H]4CCCC)CC[C@@H]23)C[C@@H](O)[C@H](CCCO)[C@@H]1O | 8.8
C=C1/C(=C\C=C2/CCC[C@]3(C)[C@@H]([C@H](C)C[C@@H]4OC(=O)C(=C)[C@H]4CCC)CC[C@@H]23)C[C@@H](O)[C@H](CCCO)[C@@H]1O | 6.3
C=C1/C(=C\C=C2/CCC[C@]3(C)[C@@H]([C@H](C)C[C@@H]4OC(=O)C(=C)[C@@H]4CCC)CC[C@@H]23)C[C@@H](O)[C@H](C)[C@@H]1O | 6.3
C=C1/C(=C\C=C2/CCC[C@]3(C)[C@@H]([C@H](C)C[C@@H]4OC(=O)C(=C)[C@@H]4CC(C)C)CC[C@@H]23)C[C@@H](O)[C@H](OCCCO)[C@@H]1O | 9.3
C=C1/C(=C\C=C2/CCC[C@]3(C)[C@@H]([C@H](C)C[C@H]4OC(=O)C(=C)[C@@H]4CC(C)C)CC[C@@H]23)C[C@@H](O)C[C@@H]1O | 10
C=C1C[C@@H](C[C@@H](C)[C@H]2CC[C@H]3/C(=C/C=C4/C[C@@H](O)C[C@H](O)C4=C)CCC[C@]23C)OC1=O | 6
C=C1/C(=C\C=C2/CCC[C@]3(C)[C@@H]([C@H](C)C[C@H]4OC(=O)C(=C)[C@H]4CCCC)CC[C@@H]23)C[C@@H](O)[C@H](CCCO)[C@@H]1O | 8.8
C=C1/C(=C\C=C2/CCC[C@]3(C)[C@@H]([C@H](C)C[C@@H]4OC(=O)C(=C)[C@@H]4C)CC[C@@H]23)C[C@@H](O)[C@H](OCCCO)[C@@H]1O | 6.1
C=C1/C(=C\C=C2/CCC[C@]3(C)[C@@H]([C@H](C)C[C@@H]4OC(=O)C(=C)[C@@H]4CCC)CC[C@@H]23)C[C@@H](O)[C@H](OCCCO)[C@@H]1O | 6.3
C=C1C(=O)O[C@H](C[C@@H](C)[C@H]2CC[C@H]3/C(=C/C=C4/C[C@@H](O)[C@H](OCCCO)[C@H](O)C4=C)CCC[C@]23C)[C@@H]1C | 6.1

SMILES | IC50 [nM]
C=C1/C(=C\C=C2/CCC[C@]3(C)[C@@H]([C@H](C)C[C@H]4OC(=O)C(=C)[C@@H]4CC(C)C)CC[C@@H]23)C[C@@H](O)[C@H](CCCO)[C@@H]1O | 9.3
C=C1C(=O)O[C@H](C[C@@H](C)[C@H]2CC[C@H]3/C(=C/C=C4/C[C@@H](O)C[C@H](O)C4=C)CCC[C@]23C)[C@@H]1C | 9.2
C=C1/C(=C\C=C2/CCC[C@]3(C)[C@@H]([C@H](C)C[C@H]4OC(=O)C(=C)[C@@H]4C)CC[C@@H]23)C[C@@H](O)[C@H](C)[C@@H]1O | 8.1
C=C1/C(=C\C=C2/CCC[C@]3(C)[C@@H]([C@H](C)C[C@H]4OC(=O)C(=C)[C@@H]4CCCC)CC[C@@H]23)C[C@@H](O)[C@H](C)[C@@H]1O | 6.7
C=C1/C(=C\C=C2/CCC[C@]3(C)[C@@H]([C@H](C)C[C@@H]4OC(=O)C(=C)[C@H]4CC)CC[C@@H]23)C[C@@H](O)[C@H](CCCO)[C@@H]1O | 8.4
C=C1/C(=C\C=C2/CCC[C@]3(C)[C@@H]([C@H](C)C[C@H]4OC(=O)C(=C)[C@@H]4CCCC)CC[C@@H]23)C[C@@H](O)[C@H](CCCO)[C@@H]1O | 8.8
C=C1/C(=C\C=C2/CCC[C@]3(C)[C@@H]([C@H](C)C[C@H]4OC(=O)C(=C)[C@@H]4CC(C)C)CC[C@@H]23)C[C@@H](O)[C@H](OCCCO)[C@@H]1O | 9.3
C=C1/C(=C\C=C2/CCC[C@]3(C)[C@@H]([C@H](C)C[C@H]4OC(=O)C(=C)[C@H]4CCCC)CC[C@@H]23)C[C@@H](O)[C@H](OCCCO)[C@@H]1O | 8.8
C=C1/C(=C\C=C2/CCC[C@]3(C)[C@@H]([C@H](C)C[C@@H]4OC(=O)C(=C)[C@@H]4CC(C)C)CC[C@@H]23)C[C@@H](O)[C@H](C)[C@@H]1O | 11
C=C1/C(=C\C=C2/CCC[C@]3(C)[C@@H]([C@H](C)C[C@H]4OC(=O)C(=C)[C@@H]4CC)CC[C@@H]23)C[C@@H](O)[C@H](OCCCO)[C@@H]1O | 8.4
C=C1/C(=C\C=C2/CCC[C@]3(C)[C@@H]([C@H](C)C[C@H]4OC(=O)C(=C)[C@@H]4C)CC[C@@H]23)C[C@@H](O)[C@H](OCCCO)[C@@H]1O | 6.1
C=C1/C(=C\C=C2/CCC[C@]3(C)[C@@H]([C@H](C)C[C@H]4OC(=O)C(=C)[C@@H]4CC)CC[C@@H]23)C[C@@H](O)[C@H](CCCO)[C@@H]1O | 8.4
C=C1C(=O)O[C@@H](C[C@@H](C)[C@H]2CC[C@H]3/C(=C/C=C4/C[C@@H](O)[C@H](C)[C@H](O)C4=C)CCC[C@]23C)[C@@H]1C | 6.8
C=C1C[C@H](C[C@@H](C)[C@H]2CC[C@H]3/C(=C/C=C4/C[C@@H](O)C[C@H](O)C4=C)CCC[C@]23C)OC1=O | 6.3
C=C1/C(=C\C=C2/CCC[C@]3(C)[C@@H]([C@H](C)C[C@@H]4OC(=O)C(=C)[C@H]4CCC)CC[C@@H]23)C[C@@H](O)[C@H](C)[C@@H]1O | 6.3
C=C1/C(=C\C=C2/CCC[C@]3(C)[C@@H]([C@H](C)C[C@@H]4OC(=O)C(=C)[C@@H]4C)CC[C@@H]23)C[C@@H](O)C[C@@H]1O | 7.7
C=C1/C(=C\C=C2/CCC[C@]3(C)[C@@H]([C@H](C)C[C@H]4OC(=O)C(=C)[C@@H]4CC)CC[C@@H]23)C[C@@H](O)C[C@@H]1O | 8.6
C=C1/C(=C\C=C2/CCC[C@]3(C)[C@@H]([C@H](C)C[C@H]4OC(=O)C(=C)[C@@H]4CCC)CC[C@@H]23)C[C@@H](O)[C@H](OCCCO)[C@@H]1O | 6.3
C=C1/C(=C\C=C2/CCC[C@]3(C)[C@@H]([C@H](C)C[C@H]4OC(=O)C(=C)[C@@H]4CCC)CC[C@@H]23)C[C@@H](O)[C@H](C)[C@@H]1O | 6.3
C=C1/C(=C\C=C2/CCC[C@]3(C)[C@@H]([C@H](C)C[C@@H]4OC(=O)C(=C)[C@@H]4CCCC)CC[C@@H]23)C[C@@H](O)[C@H](C)[C@@H]1O | 6.7
